Data published in US9688709B2, “Phosphaplatins and their use for treatment of cancers” (OHIO UNIVERSITY, priority 2010, dated 2017).
“And” between values parts separate entries of the source, which are not always exact repeats. Equal values may be shown once.

How the values were obtained:
[1] = test system: A2780/C30, epithelial human ovarian cancer resistant to 30 μM cisplatin and 100 μM carboplatin; assay: Clonogenic assay, A2780/C30 cells; format: cell-based; conditions: A2780/C30, 1 hour treatment
Experimental: (§1) To determine the relative activities of the phosphaplatins of formulas (I)-(VI), each stereoisomer was tested through in vitro clonogenic assays using human ovarian cancer cells, human colon cancer cells, and human head-and-neck cancer cells. […] Cells were cultured on monolayer using RPMI 1640 supplemented with 10% fetal bovine serum, 2 mM glutamine, 0.25 units/mL insulin and penicillin/streptomycin (100 units/mL) in a 37° C. incubator continuously gassed with 5% CO2. Cells were subcultured using 0.0625% trypsin in HBSS to maintain cells in exponential cell growth.
(§2) Half-maximal inhibitory concentration (IC50) values were determined using a clonogenic assay or a CyQUANT® cell proliferation assay. In the clonogenic assay, for example, 500-700 A2780 cells from a single cell suspension were plated onto 60 mm petri plates 24 hours before treatment with the platinum compounds to permit cell attachment. On the day of treatment with the platinum compounds described in the above Synthesis Examples, the medium was decanted and was replaced with the appropriate concentration of phosphaplatin compounds (from 50 nM to 75 μM) at three different time points, […] Triplicate plates were set up for each platinum compound concentration. After the 24-hour treatment, the medium containing the platinum compounds was decanted and was replaced with fresh medium. These plates were returned to the 37° C. incubator for 7 days for colony formation.
(§3) In TABLES 1-5, except where actual error values are given, each reported value is assumed to have an error not greater than ±15% of the reported value; and unless otherwise specified, the data were obtained from clonogenic assays.
(§4) In further tests, cells were treated with the platinum compounds continuously for 7 days. Colonies were fixed and stained using 2% crystal violet in 4% formaldehyde. Colonies containing more than 50 cells were scored. The number of scored colonies from the triplicate plates was averaged, and this number was divided by the number of cells plated to obtain a value for the fraction of cells forming colonies. These values for fraction of cells forming colonies then were corrected for plating efficiency by dividing the fraction by the number of cells forming colonies in plates that were not treated with platinum compounds. […] Similar data for OVCAR-10 are shown in FIG. 3, comparing (1R,2R)-pyrodach-2 (RD2), (1R,2R)-pyrodach-4 (RD4), trans-(±)-pyrodach-2 (T-D2), and trans-(±)-pyrodach-4 (T-D4).

[2] = test system: A549, human lung adenocarcinoma cancer cells; assay: CyQUANT cell proliferation assay, A549; format: cell-based; conditions: A549, 72-hour treatment
Excerpt: (§5) In these experiments, desired number of cells were exposed to phosphaplatins of different concentrations for 72 hr. before measuring the DNA content. Because the DNA content is proportional to the number of surviving cells, the assay provides a quantitative measure of proliferating cells. The technique is described in detail in Jones et al., “Sensitive determination of cell number using the CyQUANT cell proliferation assay,” J. Immunol. Methods, vol. 254, pp. 85-98 (2001).
as §3

[3] = test system: OVCAR-5, advanced human ovarian cancer cells; assay: Clonogenic assay, OVCAR-5 cells; format: cell-based; conditions: OVCAR-5, 24 hours treatment
Experimental: as §1
(§6) Half-maximal inhibitory concentration (IC50) values were determined using a clonogenic assay or a CyQUANT® cell proliferation assay. In the clonogenic assay, for example, 500-700 A2780 cells from a single cell suspension were plated onto 60 mm petri plates 24 hours before treatment with the platinum compounds to permit cell attachment. […]
(§7) In further tests, cells were treated with the platinum compounds continuously for 7 days. […] Colonies containing more than 50 cells were scored. The number of scored colonies from the triplicate plates was averaged, and this number was divided by the number of cells plated to obtain a value for the fraction of cells forming colonies. […]

[4] = test system: OVCAR-10, human ovarian cancer resistant to cisplatin treatment; assay: Clonogenic assay, OVCAR-10 cells; format: cell-based; conditions: OVCAR-10, 24 hours treatment
Experimental: as §1
Half-maximal inhibitory concentration (IC50) values were determined using a clonogenic assay or a CyQUANT® cell proliferation assay. In the clonogenic assay, for example, 500-700 A2780 cells from a single cell suspension were plated onto 60 mm petri plates 24 hours before treatment with the platinum compounds to permit cell attachment. On the day of treatment with the platinum compounds described in the above Synthesis Examples, the medium was decanted and was replaced with the appropriate concentration of phosphaplatin compounds (from 50 nM to 75 μM) at three different time points, and the treated cells were placed back into the 37° C. incubator for 24 hours. Triplicate plates were set up for each platinum compound concentration. After the 24-hour treatment, the medium containing the platinum compounds was decanted and was replaced with fresh medium. These plates were returned to the 37° C. incubator for 7 days for colony formation.
as §3, §4

[5] = test system: head and neck cancer cell line UMSCC10b; assay: 144 hour exposure IC50, UMSCC10b; format: cell-based, human
Experimental: (§8) Additionally these isomeric compounds were also tested by exposing them for 144 hours in the following cell lines: UMSCC10b, Panc-1, UMSCC15s, A2780/C30 and HCC1806.

[6] = test system: SKMEL-2, human skin melanoma cancer cells; assay: CyQUANT cell proliferation assay, SKMEL-2; format: cell-based; conditions: SKMEL-2, 72-hour treatment
Excerpt: as §5, §3

[7] = test system: OVCAR-8, human ovarian cancer cells with dysfunctional p53; assay: CyQUANT cell proliferation assay, OVCAR-8; format: cell-based; conditions: OVCAR-8, 72-hour treatment
Excerpt: as §5, §3

[8] = test system: A2780, epithelial human ovarian cancer; assay: Clonogenic assay, A2780 cells; format: cell-based
Experimental: as §1
as §2, with “After the 24-hour treatment, the medium containing the platinum compounds was decanted and was replaced with fresh medium.” left out
as §3, §4

[9] = test system: PC-3, human metastatic prostate cancer cells; assay: CyQUANT cell proliferation assay, PC-3; format: cell-based; conditions: PC-3, 72-hour treatment
Excerpt: as §5, §3

[10] = test system: breast cancer cell line HCC1806; assay: 144 hour exposure IC50, HCC1806; format: cell-based; conditions: HCC1806, 144 hours exposure
Experimental: as §8

[11] = test system: UMSCC10b/15s, cisplatin-resistant human head-and-neck cancer cell line; assay: Clonogenic assay, UMSCC10b/15s cells; format: cell-based; conditions: 7-day treatment
Experimental: as §1, §6, §7

[12] = test system: OVCAR-10, human ovarian cancer resistant to cisplatin treatment; assay: CyQUANT cell proliferation assay, OVCAR-10; format: cell-based; conditions: OVCAR-10, 72-hour treatment
Excerpt: as §5, §3

[13] = test system: U251, human glioblastoma cancer cells; assay: CyQUANT cell proliferation assay, U251; format: cell-based; conditions: U251, 72-hour treatment
Excerpt: as §5, §3

[14] = test system: pancreatic cell line Panc-1; assay: 144 hour exposure IC50, Panc-1; format: cell-based; conditions: Panc-1, 144 hours exposure
Experimental: as §8

[15] = Maximum tolerated dose toxicity in ICR (CD-1) mice; format: in vivo; conditions: dose of 60 mg/kg
Experimental: Escalating doses were administered from 10 mg/kg to 100 mg/kg in 4-5 week-old female ICR (CD-1) mice, Taconic (Rensselaer, N.Y.). The mice had body weights between 15 g and 24 g. The mice were injected with one of the phosphaplatins every other day in a three-dose regimen. Total body-weight loss of 20% or more, unthrifty appearance, failure to gain weight, other observable health issues, departures from normal behaviors, or death, were considered an adverse event.

[16] = test system: human ovarian cancer OVCAR-10 xenograft; assay: In vivo efficacy, OVCAR-10 mouse xenograft; parameters: species or system mice; conditions: 60 mg/kg qodx3, time to tumor size 1000 mm^3, compared with control
Experimental: Stable human clonal ovarian cancer cell lines OVCAR-10 and head and neck cancer UMSCC10b were grown separately in cell culture until 80-90% confluency was reached. Trypsin (GIBCO/BRL, Grand Island, N.Y.) was used to detach adherent cells. Trypsinized cells were thoroughly washed with PBS (Phosphate Buffered Saline) to remove trypsin. Efficacy of phosphaplatin compounds were evaluated by subcutaneously implanting human OVCAR-10 and UMSCC-10b xenograft in SCID Hairless OutBred, SHO-Prkdc^scidHr^hr, (Charles River Labs, Wilmington, Mass.) mice, NIH (NIH III: NIHBNX-F; NIHS-Lystbg Foxnlnu Btkxid, 4-week old female, Taconic (Rensselaer, N.Y.) mice.
Female SCID/NIH mice 4-5 weeks old were acclimated for one week before initiation of efficacy trials. Cancer cells were re-suspended in PBS and all mice except for negative control mice were injected subcutaneously with from 1×10^6 cells/0.10 mL to 5×10^6 cells/0.10 mL in PBS. The tumor size was evaluated as a function of time. The mice were examined daily for tumor growth. Tumors were measured using digital calipers. The tumor volume was calculated by the formula (W^2×L)/2, where W is the tumor measurement at the widest point, and L is the tumor dimension at the longest point, where the volume of the tumor in mm^3 is equivalent to the weight in mg.
After approximately 2 weeks of the subcutaneous injection of cancer cells, the tumors that had reached a distinguishable tumor sizes (approximately 100 mm^3 to 200 mm^3), phosphaplatin compounds of desired doses were administered intra-peritoneally. These administrations were done one time on day 1, once on day 3, and once on day 5.
Each group of xenograft mice was treated with phosphaplatin compounds, and a matched set was treated with vehicle/placebo (PBS solution) and mock injection (as a control for stress response). […] The xenograft SCID mice/NIH were monitored every day for any adverse events in their health by measuring weight loss/gain and food consumption. Measurements were stopped and the study was ended when the tumor size exceeded 3000 mm^3. […]

Ovarian tumor = Ovarian tumor inflicted SCID mice, tumor growth and log cell kill; format: in vivo
Experimental: Ovarian tumor inflicted SCID mice were treated with trans-(±)-pyrodach-2 and trans-(±)-pyrodach-4 at various doses up to 40 mg/kg, and tumor growth was monitored up to six weeks or until the tumor size became so large that these animals were sacrificed. The tumor growth or regression by the phosphaplatin-treated mice was then compared with cisplatin-treated mice (7 mg/kg) and carboplatin-treated mice (60 mg/kg). Three doses of platinum compounds were administered on alternate days when the tumor grew to a size of at least 100 mm^3 size. Gross and net log cell kill values were then calculated using the formulas:
[formula] [formula] where T and C are median times in days to grow tumor to a specified size, and Td is the median time in days to double the size of the tumor in control animals.

VEGFR = assay: Western blot protein expression, VEGFR; format: in vivo; conditions: treated mice, exposure 1 hour to 12 hours
Experimental: (§9) Following 12% SDS-PAGE electrophoresis, proteins were transferred to a PVDF membrane using 100 V for 1.5 hours at 4° C. Membranes were washed with 0.05% TWEEN-20 and Tris-buffered saline (TBST) solution and blocked with 5% non-fat dry milk and 1% BSA. The membrane was incubated with a 1:25,000 dilution of primary antibody of the protein of interest over night at 4° C. Membranes were washed with 0.05% TBST followed by incubating in the corresponding HRP-conjugated antibody (1:40,000 dilution). The proteins were visualized using ECL-Advance chemiluminescent system (Amersham-GE Healthcare Biosciences, Pittsburgh, Pa.).
(§10) The phosphaplatins activate a number of proapototic and tumor suppression genes such as FAS, PTEN, PUMA, BAX and others. Experiments through Western Blots confirm high levels of protein expressions transcribed by these genes. […] Likewise, BCL2 was down regulated as much as 70% by RR-pyrodach-2 and RR-pyrodach-4. Additionally, FAS, FADD, and platinum compound were co-localized in the lipid rafts. These activations are also associated with the increased expression of Sphingomyelinase (Smase), as verified by the increased protein expression of SMase.

PUMA = assay: Western blot protein expression, PUMA; format: in vivo; conditions: treated mice, exposure 1 hour to 12 hours
Experimental: as §9, §10

FAS = assay: Western blot protein expression, FAS; format: in vivo; conditions: treated mice, exposure 1 hour to 12 hours
Experimental: as §9, §10

BAX = assay: Western blot protein expression, BAX; format: in vivo; conditions: treated mice, exposure 1 hour to 12 hours
Experimental: as §9, §10

[17] = 40 mg/kg, three doses on alternate days

## NC1CCCCC1N.O=P([O-])(O)OP(=O)([O-])O.[Pt+2] (racemic) [trans-(±)-pyrodach-2, trans-(±)-1,2-cyclohexanediamine(pyrophosphato) platinum(II)]
[1]
  IC50: 48 ± 5 µM
[2]
  IC50: 11.1 µM
[3]
  IC50: 12.2 µM
[4]
  IC50: 4.6 µM
[5]
  IC50: 8.9 µM
[6]
  IC50: 8.3 µM
[7]
  IC50: 9.4 µM
[8]; A2780, 1 hour treatment
  IC50: 22 ± 4 µM
[8]; A2780, 24 hours treatment
  IC50: 2.4 ± 0.2 µM
[9]
  IC50: 24.5 µM
[10]
  IC50: > 30 µM
[11]
  IC50: 5 µM
[12]
  IC50: 11.8 µM
[13]
  IC50: 10.1 µM
[14]
  IC50: 18.5 µM

## N.N.O=C([O-])C1(C(=O)[O-])CCC1.[Pt+2] [carboplatin]
[1]
  IC50: > 200 µM
[15]
  death: 33%
[4]
  IC50: 26.7 µM
[16]
  percent increased life-span (% ILS): about 125%
[8]; A2780, 1 hour treatment
  IC50: 90 µM
[8]; A2780, 24 hours treatment
  IC50: > 60 µM
Ovarian tumor; 60 mg/kg dose
  population died: more than 50%
Ovarian tumor; 60 mg/kg, three doses on alternate days
  log cell kill values: less than 2

## trans-(±)-1,2-cyclohexanediamine-trans-dihydroxo(pyrophosphato) platinum(IV) [trans-(±)-pyrodach-4]
[1]
  IC50: 155 ± 20 µM
[2]
  IC50: 12.2 µM
VEGFR
  down regulation of VEGFR: up to 50%
PUMA
  upregulation of PUMA: up to 5 fold
[4]
  IC50: 14.4 µM
[6]
  IC50: 14.6 µM
[7]
  IC50: 12.3 µM
[8]; A2780, 1 hour treatment
  IC50: 180 µM and 170 µM
[9]
  IC50: 20 µM
FAS
  upregulation of FAS: up to 25 fold
BAX
  upregulation of BAX: up to 4 fold
[12]
  IC50: 23.2 µM
[13]
  IC50: 14.6 µM
Ovarian tumor; [17]
  gross log cell kill: greater than 3
  log net cell kill: greater than 2
